Reference: EP4342467A1, “KU INHIBITORS FOR USE IN TUMOR THERAPY” (Masarykova Univerzita, priority 2022, dated 2024)

How the values were obtained:
[1] = molecular target: Ku complex (Homo sapiens, UniProt P12956+P13010); experiment: microwell protein induced fluorescent enhancement assay (mwPIFE) of Ku-DNA binding
Protocol: A rapid method for detecting protein-nucleic acid interactions by protein induced fluorescence enhancement. Sci Rep 6, 39653. mwPIFE is based on enhanced fluorescence of cyanine fluorophores attached to nucleic acid probes upon protein binding. […] The probe was immobilized in 96 well plates through biotin (Btn) attached to one end of DNA and incubated with purified Ku complex (0.5 pmol) in 50 µl of binding buffer (10 mM calcium acetate, 60 mM potassium acetate, 20 mM TRISacetate pH 7.9, 100 mg BSA/1). Ku-DNA binding was calculated from altered fluorescence measured by a fluorescence plate reader (Valuchova et al., 2016). […]

[2] = system: HCT116 cells; experiment: C-circle assay (extrachromosomal circular telomeric DNA); type: cell-based, human; settings: C-circle assay in HCT116 cells treated for 3 to 7 days
Protocol: HCT116 cell were incubated for 3, 5 or 7 days in McCoy's 5a medium with 10% Fetal Bovine Serum, 2 mM L-Glutamine and Penicilin/Streptomycin 200 U/l each and supplemented with Compound 1-9. C-circle assay that utilizes rolling circle amplification of circular DNA by φ29 polymerase was performed as described in Henson, J.D., Lau, L.M., Koch, S., Martin La Rotta, N., Dagg, R.A., and Reddel, R.R. (2017). The C-Circle Assay for alternative-lengthening-of-telomeres activity. Methods 114, 74-84. Amplified circular telomeric DNA was detected by dot blot hybridization with P^32-labeled telomeric DNA oligonucleotide (5'-[…]-3' (SEQ ID NO: 6)) (Figure 4).

[3] = system: HCT116 cells; experiment: Q-FISH scoring of chromosome arms with no telomeric signal; type: cell-based, human; settings: HCT116, one or two days, 2 or 5 µM
Protocol: Presence of extrachromosomal circular telomeric DNA indicates rapid telomere shortening via excision of telomeric circles. To validate this prediction, we scored chromosome arms with no telomeric signal on metaphase chromosomes from iKU-1 treated cells by quantitative fluorescence in situ hybridization (Q-FISH). HCT116 cells were incubated for one or two days in McCoy's 5a medium with 10% Fetal Bovine Serum, 2 mM L-Glutamine and Penicilin/Streptomycin 200 U/l each and supplemented with iKU-1 (2 or 5 µM). Treated cells were incubated with colcemid (0.05 µg/ml) for 3 hours to increase a number of cells in metaphase. Cells were harvested and fixed in methanol and glacial acetic acid (3:1 v/v). Chromosome spreads on slides were hybridized with telomeric peptide nucleid acid probe TelC-Cy3 (Panagene, F1002) in 70% formamide, 0.5% blocking reagent (Roche) and 20 mM TRIS-Cl pH 7.4 according manufacturer's instruction. After washing, slides were counterstained with DAPI and mounted in […]® Antifade Mounting Medium with DAPI (Vector Laboratories; H-1200-10). Fluorescence microscope with oil immersed 100× objective was used to detect telomeric signal at chromosome ends.

[4] = system: HCT116 cells; experiment: Telomere Shortest Length Assay; type: cell-based, human; settings: HCT116 treated for two days, compared with untreated control
Protocol: iKU-1 induces rapid shortening of telomeres (Figure 6). HCT116 cells were treated for two days with iKU-1 and telomere size was measured by Telomere Shortest Length Assay as described in Lai, T.P., Zhang, N., Noh, J., Mender, I., Tedone, E., Huang, E., Wright, W.E., Danuser, G., and Shay, J.W. (2017). A method for measuring the distribution of the shortest telomeres in cells and tissues. Nat Commun 8, 1356, whereby individual telomeres are PCR-amplified, separated by agarose gel electrophoresis and detected by Southern hybridization with P^32-labeled telomeric DNA oligonucleotide (5'-[…]-3' (SEQ ID NO: 6)).

[5] = system: HCT116 cells; experiment: cell proliferation, ATPlite assay; type: cell-based; settings: Homo sapiens, HCT-116, 120 h, read-out: Inhibition of cell proliferation IC50
Protocol: HCT116, U2OS and HeLa cells were grown in McCoy's 5a medium supplemented with 10% Fetal Bovine Serum, 2 mM L-Glutamine and Penicilin/Streptomycin 200 U/l each in the presence of Compound 1-9. After growth at 37 °C, 5% CO2 for 3 days, monolayer of cells was detached using TrypLE Express (Gibco), cells were counted using 0.4% trypan blue stain and hemocytometer. […] Number of viable cells was estimated using ATPlite kit (Perkin Elmer).

[6] = system: SKOV3; experiment: growth of SKOV3 cells by ATPlite; type: cell-based; settings: 7 days
Protocol: 2,000 SKOV3 and A2780 cells were seeded in 100 µl of McCoy's 5a or RPMI 1640 media, respectively, for one day and then incubated with iKU-1 for 7 days. Number of viable cells was measured by ATPlite kit (Perkin Elmer) and normalized to the treatment with 0.5% DMSO.

Ku complex, sequence (P12956 whole entry): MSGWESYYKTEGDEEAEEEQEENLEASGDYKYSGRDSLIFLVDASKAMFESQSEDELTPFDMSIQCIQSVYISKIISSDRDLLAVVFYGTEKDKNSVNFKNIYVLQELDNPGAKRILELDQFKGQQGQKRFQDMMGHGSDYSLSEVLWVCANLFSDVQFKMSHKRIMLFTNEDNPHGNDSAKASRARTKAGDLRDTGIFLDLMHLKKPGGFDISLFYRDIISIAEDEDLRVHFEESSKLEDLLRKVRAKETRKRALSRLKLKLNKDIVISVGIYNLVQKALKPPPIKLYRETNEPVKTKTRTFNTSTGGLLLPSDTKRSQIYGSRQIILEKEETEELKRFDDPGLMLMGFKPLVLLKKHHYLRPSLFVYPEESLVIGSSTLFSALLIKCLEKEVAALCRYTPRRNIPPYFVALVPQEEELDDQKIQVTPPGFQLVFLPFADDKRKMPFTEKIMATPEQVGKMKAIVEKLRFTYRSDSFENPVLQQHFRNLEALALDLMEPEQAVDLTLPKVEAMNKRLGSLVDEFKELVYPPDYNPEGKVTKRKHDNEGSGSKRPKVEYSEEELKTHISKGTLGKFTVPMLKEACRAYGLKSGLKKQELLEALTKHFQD
Ku complex, sequence (P13010 whole entry): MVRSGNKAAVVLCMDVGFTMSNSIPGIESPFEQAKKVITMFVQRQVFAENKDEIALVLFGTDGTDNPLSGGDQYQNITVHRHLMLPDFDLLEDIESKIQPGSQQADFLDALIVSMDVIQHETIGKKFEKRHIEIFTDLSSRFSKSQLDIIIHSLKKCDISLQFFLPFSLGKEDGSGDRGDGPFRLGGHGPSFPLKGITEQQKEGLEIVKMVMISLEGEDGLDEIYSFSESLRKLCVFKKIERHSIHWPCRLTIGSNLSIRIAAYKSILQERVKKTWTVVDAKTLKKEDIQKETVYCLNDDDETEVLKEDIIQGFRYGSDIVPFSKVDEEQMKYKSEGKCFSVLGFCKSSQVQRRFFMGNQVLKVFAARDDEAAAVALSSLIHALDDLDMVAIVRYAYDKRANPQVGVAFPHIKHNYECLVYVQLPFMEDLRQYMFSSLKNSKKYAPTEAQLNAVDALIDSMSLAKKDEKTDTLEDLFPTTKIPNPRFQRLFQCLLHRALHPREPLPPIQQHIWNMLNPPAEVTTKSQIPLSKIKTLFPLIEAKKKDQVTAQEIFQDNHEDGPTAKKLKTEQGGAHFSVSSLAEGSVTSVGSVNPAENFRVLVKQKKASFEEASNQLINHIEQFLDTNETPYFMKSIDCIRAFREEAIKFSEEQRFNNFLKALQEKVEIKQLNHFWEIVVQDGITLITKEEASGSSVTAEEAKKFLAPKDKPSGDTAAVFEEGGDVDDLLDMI

**Q.** With O=C(Nc1nc(-c2ccccn2)cs1)c1cncc(Br)c1 [Compound 1] as the compound, how does the IC50 ([1]; mwPIFE, estimated from the 0.5 to 8 µM concentration range, read-out: Inhibition of Ku-DNA binding IC50) read?
**A.** Its IC50 is 3000 nM.

**Q.** What about the remaining activity at 8 µM ([1]; read-out: % binding at 8 µM (100% = 0.5% DMSO)) of the same compound?
**A.** The remaining activity at 8 µM was 5%.

**Q.** What about the “Concentration inducing c-circle formation” value [2] of the same compound?
**A.** The value was 1 µM.

**Q.** And the “incidence of telomere-free chromosome ends” value [3]?
**A.** Its value is “increase incidence of telomere-free chromosome ends”.

**Q.** And the size of telomeres [4]?
**A.** Its size of telomeres is “relative decrease in the size of telomeres”.

**Q.** And the IC50 [5]?
**A.** The IC50 was 500 nM.

**Q.** What about the “sensitivity of cells (growth)” value ([6]; SKOV3, 0.5 µM) of the same compound?
**A.** Its value is “sensitive”.

**Q.** And the “sensitivity of SKOV3 relative to A2780” value ([6]; from growth curves (Figure 9))?
**A.** Its value is 10 times.
